What all share (test): SelectScreen Kinase Profiling, single point inhibition and IC50 for off-target kinases
Common to all, as to format: biochemical

Assay [1] has as its target off-target kinases (Homo sapiens, UniProt O00418).
The target of assay [2] is off-target kinases (Homo sapiens, UniProt Q9Y3S1). The following applies: WNK2, LanthaScreen Binding.
Assay [3] deals with off-target kinases (Homo sapiens, UniProt Q16816). The following applies: PHKG1, ZLYTE, ATP Km app.
Assay [4] deals with T1, off-target kinases (Homo sapiens, UniProt Q9H093).
T1 sequence (Q9H093 1-628): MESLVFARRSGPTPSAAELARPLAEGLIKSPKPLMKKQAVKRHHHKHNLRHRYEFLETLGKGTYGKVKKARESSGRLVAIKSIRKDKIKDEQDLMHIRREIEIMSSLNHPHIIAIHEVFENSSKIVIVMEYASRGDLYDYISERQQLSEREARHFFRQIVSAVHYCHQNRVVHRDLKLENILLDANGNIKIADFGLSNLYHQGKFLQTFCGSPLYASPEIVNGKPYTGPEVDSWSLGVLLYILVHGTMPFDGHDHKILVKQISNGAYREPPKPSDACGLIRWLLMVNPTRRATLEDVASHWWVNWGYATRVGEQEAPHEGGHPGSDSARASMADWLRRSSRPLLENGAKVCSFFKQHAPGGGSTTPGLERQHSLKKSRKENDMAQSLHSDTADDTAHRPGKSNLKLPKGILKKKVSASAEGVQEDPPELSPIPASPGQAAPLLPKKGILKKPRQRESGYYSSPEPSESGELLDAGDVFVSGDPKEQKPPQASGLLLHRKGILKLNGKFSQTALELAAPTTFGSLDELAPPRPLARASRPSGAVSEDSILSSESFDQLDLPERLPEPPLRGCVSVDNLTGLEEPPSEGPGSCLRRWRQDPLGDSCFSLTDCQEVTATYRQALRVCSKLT
The following applies: NUAK2, LanthaScreen Binding. On the technique in general: TR-FRET usually uses a lanthanide donor and a delayed reading to cut background.

The target in assay [5] is T2, off-target kinases (Homo sapiens, UniProt P41743).
T2 sequence (P41743 1-596): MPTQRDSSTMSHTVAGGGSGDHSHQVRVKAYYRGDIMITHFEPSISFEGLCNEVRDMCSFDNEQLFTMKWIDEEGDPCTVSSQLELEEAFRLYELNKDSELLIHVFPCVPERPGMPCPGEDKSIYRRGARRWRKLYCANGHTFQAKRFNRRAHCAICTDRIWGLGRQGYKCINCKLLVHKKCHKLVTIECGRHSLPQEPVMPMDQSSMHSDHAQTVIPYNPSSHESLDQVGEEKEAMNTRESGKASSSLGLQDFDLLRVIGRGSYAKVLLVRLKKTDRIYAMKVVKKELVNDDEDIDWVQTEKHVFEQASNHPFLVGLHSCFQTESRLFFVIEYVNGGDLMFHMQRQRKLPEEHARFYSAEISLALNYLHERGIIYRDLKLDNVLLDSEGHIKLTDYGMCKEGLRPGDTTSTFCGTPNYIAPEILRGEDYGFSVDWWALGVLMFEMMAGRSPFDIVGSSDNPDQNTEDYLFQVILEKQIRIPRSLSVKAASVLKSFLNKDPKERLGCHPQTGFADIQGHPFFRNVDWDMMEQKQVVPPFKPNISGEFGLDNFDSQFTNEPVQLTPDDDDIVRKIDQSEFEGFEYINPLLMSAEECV
The following applies: PRKCI (PKC iota), ZLYTE, ATP Km app.

Assay [6] has as its target off-target kinases (Homo sapiens, UniProt O75716). The following applies: STK16 (PKL12), LanthaScreen Binding.

Read-outs that look alike come from different tables or passages of the source.

Chain of off-target kinases (Homo sapiens, UniProt Q16816) (Q16816 whole entry): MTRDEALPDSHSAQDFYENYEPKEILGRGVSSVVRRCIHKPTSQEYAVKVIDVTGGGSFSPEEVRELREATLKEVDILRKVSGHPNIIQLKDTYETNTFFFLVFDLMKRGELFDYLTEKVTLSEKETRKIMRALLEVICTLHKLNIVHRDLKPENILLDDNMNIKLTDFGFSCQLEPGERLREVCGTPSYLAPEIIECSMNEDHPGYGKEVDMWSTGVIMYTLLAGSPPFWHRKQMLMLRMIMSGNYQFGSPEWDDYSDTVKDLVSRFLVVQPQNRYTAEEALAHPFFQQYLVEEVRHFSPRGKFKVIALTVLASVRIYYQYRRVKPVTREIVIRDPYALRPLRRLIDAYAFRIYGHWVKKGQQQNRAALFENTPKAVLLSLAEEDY
Chain of off-target kinases (Homo sapiens, UniProt O00418) (O00418 whole entry): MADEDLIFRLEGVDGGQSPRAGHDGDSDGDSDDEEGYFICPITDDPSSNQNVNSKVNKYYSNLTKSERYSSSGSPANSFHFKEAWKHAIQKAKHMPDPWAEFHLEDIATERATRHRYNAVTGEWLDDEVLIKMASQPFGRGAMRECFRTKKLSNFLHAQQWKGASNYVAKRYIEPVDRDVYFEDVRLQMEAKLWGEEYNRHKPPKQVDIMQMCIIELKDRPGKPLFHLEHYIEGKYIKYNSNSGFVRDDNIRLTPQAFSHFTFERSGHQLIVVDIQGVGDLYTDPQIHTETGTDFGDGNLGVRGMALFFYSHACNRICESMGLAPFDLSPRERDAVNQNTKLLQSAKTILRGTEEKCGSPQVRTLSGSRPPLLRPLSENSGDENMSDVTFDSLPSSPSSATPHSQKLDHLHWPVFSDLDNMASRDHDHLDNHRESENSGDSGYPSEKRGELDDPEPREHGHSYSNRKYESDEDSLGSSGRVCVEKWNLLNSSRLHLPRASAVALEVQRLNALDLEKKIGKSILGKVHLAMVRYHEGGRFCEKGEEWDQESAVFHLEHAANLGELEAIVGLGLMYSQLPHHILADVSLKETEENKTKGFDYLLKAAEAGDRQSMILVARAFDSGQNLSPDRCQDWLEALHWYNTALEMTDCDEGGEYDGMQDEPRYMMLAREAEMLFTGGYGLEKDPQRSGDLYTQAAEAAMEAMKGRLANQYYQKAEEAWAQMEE
Chain of off-target kinases (Homo sapiens, UniProt Q9Y3S1) (Q9Y3S1 whole entry): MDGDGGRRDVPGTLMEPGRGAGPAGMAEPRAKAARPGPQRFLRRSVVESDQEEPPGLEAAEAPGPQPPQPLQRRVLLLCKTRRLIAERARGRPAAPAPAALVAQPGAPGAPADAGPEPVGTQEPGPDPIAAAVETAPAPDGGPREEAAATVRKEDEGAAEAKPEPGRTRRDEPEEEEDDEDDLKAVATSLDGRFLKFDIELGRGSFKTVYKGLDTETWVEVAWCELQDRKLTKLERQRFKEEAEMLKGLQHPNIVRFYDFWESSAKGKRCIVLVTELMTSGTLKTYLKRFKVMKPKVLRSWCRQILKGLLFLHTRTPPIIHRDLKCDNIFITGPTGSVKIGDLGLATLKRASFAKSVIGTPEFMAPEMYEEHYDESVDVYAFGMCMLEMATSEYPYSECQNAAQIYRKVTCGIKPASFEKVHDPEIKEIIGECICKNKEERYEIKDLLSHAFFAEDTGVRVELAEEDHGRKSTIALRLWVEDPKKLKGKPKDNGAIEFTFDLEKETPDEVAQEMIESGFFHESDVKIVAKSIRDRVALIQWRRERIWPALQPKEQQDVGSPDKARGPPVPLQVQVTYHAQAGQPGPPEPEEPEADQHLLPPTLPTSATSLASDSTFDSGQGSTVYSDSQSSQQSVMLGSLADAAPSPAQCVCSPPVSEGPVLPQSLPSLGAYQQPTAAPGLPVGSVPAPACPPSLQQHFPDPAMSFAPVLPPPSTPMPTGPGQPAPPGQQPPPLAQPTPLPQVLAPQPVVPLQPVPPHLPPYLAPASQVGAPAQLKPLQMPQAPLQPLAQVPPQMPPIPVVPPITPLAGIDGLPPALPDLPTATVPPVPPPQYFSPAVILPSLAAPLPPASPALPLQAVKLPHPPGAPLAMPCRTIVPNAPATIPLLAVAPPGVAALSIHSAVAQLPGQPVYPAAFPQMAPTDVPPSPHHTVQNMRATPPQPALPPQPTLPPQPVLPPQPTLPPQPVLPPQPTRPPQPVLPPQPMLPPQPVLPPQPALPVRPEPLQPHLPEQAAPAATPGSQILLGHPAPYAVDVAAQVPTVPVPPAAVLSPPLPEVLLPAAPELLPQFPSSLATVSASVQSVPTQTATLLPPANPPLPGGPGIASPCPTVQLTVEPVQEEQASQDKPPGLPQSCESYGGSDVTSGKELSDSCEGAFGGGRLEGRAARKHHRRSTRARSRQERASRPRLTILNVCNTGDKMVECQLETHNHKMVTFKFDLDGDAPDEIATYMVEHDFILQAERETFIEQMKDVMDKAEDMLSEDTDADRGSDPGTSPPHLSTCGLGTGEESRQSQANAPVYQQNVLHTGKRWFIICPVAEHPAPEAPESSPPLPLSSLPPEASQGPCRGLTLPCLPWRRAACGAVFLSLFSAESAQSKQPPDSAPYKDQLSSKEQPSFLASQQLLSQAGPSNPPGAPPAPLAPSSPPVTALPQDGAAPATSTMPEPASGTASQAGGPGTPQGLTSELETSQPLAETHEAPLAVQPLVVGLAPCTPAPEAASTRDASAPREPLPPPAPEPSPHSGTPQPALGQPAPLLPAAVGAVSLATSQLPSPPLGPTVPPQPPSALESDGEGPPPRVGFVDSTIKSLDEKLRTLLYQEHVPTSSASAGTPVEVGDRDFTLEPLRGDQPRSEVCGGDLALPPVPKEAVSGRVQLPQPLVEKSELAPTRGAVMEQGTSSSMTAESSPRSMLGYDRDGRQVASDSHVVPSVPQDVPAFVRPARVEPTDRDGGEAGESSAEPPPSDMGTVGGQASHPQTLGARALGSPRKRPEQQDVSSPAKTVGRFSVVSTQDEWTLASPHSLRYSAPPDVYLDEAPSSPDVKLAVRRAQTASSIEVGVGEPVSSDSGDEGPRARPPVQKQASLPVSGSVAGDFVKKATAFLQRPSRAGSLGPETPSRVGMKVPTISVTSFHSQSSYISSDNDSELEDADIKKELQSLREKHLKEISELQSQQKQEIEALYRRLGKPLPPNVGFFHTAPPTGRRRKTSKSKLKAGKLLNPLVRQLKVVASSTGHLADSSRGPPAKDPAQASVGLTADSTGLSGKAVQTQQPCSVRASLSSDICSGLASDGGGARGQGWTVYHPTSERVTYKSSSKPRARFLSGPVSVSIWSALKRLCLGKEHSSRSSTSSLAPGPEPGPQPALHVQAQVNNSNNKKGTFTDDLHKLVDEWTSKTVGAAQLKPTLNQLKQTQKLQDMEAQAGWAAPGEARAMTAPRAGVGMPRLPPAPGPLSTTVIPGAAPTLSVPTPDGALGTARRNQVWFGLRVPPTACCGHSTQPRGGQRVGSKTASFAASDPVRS
Chain of off-target kinases (Homo sapiens, UniProt O75716) (O75716 whole entry): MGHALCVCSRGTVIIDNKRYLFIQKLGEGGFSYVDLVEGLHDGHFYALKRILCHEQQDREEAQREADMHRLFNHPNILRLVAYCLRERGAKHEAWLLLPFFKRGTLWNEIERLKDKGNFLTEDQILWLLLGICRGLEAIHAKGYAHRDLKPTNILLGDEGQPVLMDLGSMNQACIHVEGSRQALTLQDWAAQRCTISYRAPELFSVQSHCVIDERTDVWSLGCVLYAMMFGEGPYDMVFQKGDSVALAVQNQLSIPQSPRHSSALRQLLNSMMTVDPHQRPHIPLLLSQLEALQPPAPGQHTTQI

With `N#Cc1cc(-c2ncnc(Nc3ccc(N4CCN(C5COC5)CC4)cc3)n2)ccc1OC1CCOCC1` [Compound 1, 5-(4-((4-(4-(oxetan-3-yl)piperazin-1-yl)phenyl)amino)-1,3,5-triazin-2-yl)-2-((tetrahydro-2H-pyran-4-yl)oxy)benzonitrile], the inhibition at off-target kinases [1] (read-out: % Inhibition 1) is -1%; at off-target kinases [1] (read-out: % Inhibition 2), 0%; on off-target kinases [1] (read-out: % Inhibition Avg) it was -1%; on off-target kinases [2] (read-out: % Inhibition 1), -4%; at off-target kinases [2] (read-out: % Inhibition 2) it was 5%; on off-target kinases [2] (read-out: % Inhibition Avg), 1%. The inhibition at off-target kinases [3] (read-out: % Inhibition 1) was found to be 39%; at off-target kinases [3] (read-out: % Inhibition 2) it was 37%; on off-target kinases [3] (read-out: % Inhibition Avg), 38%; on off-target kinases [4] (read-out: % Inhibition 1), 54%; on off-target kinases [4] (read-out: % Inhibition 2) it was 52%; on off-target kinases [4] (read-out: % Inhibition Avg), 53%. For the same compound, the inhibition at off-target kinases [5] (read-out: % Inhibition 1) was determined as 5%; at off-target kinases [5] (read-out: % Inhibition 2), 7%; at off-target kinases [5] (read-out: % Inhibition Avg) it was 6%; at off-target kinases [6] (read-out: % Inhibition 1) it was 95%; at off-target kinases [6] (read-out: % Inhibition 2) it was 93%; at off-target kinases [6] (read-out: % Inhibition Avg) it was 94%.

What is called inhibition is the change of the read-out against control, counted positive when it falls.

The record behind these values is patent US11572590B2, “Methods for evaluating tumor cell spheroids using 3D microfluidic cell culture device” (Dana-Farber Cancer Institute, Inc., priority 2017, dated 2023).
